From patent US7132421B2, “CIS-imidazoles” (Hoffmann-La Roche Inc., priority 2003, dated 2006)

Biological target: interaction between p53 and MDM2 proteins (recombinant GST-tagged MDM2) (Homo sapiens, UniProt Q00987)
Test: ELISA of inhibition of p53-MDM2 interaction (GST-tagged MDM2 binding to immobilized p53-like peptide)
Settings: absorption at 450 nm, triplicate

Chain of interaction between p53 and MDM2 proteins (recombinant GST-tagged MDM2) (Q00987 whole entry): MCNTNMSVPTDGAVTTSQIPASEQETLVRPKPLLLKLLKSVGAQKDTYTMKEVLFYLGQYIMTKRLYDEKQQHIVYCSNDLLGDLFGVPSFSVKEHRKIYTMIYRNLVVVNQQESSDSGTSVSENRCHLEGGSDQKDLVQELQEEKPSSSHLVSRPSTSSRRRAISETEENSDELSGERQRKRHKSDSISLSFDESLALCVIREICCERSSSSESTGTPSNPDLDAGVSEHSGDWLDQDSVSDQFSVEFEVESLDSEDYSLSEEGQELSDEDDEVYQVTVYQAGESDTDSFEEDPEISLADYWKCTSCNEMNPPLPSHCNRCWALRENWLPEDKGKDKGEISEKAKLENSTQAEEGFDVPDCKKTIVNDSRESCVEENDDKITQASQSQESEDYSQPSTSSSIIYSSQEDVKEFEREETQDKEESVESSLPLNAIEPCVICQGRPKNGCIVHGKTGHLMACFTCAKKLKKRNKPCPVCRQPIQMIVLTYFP

| SMILES | IC50 |
| --- | --- |
| CCOc1cc(OC)ccc1C1=N[C@H](CC2CCCC2)[C@H](c2ccc(Cl)cc2)N1C(=O)N1CCC(N2CCCC2)CC1 (relative stereo) [Example 28, [5-(4-Chloro-phenyl)-4-cyclopentylmethyl-2-(2-ethoxy-4-methoxy-phenyl)-4,5-dihydro-imidazol-1-yl]-(4-pyrrolidin-1-yl-piperidin-1-yl)-methanone] | 5.5 µM |
| CCOc1cc(OC)ccc1C1=N[C@H](CC2CCCC2)[C@H](c2ccc(Cl)cc2)N1C(=O)N1CCN(C)CC1 (stereo in doubt) [Example 24, [5-(4-Chloro-phenyl)-4-cyclopentylmethyl-2-(2-ethoxy-4-methoxy-phenyl)-4,5-dihydro-imidazol-1-yl]-(4-methyl-piperazin-1-yl)-methanone] | 13.2 µM |
| CCCCC[C@H]1N=C(c2ccc(OC)cc2OCC)N(C(=O)N2CCC(N3CCCC3)CC2)[C@H]1c1ccc(Cl)cc1 (relative stereo) [Example 55, [5-(4-Chloro-phenyl)-2-(2-ethoxy-4-methoxy-phenyl)-4-pentyl-4,5-dihydro-imidazol-1-yl]-(4-pyrrolidin-1-yl-piperidin-1-yl)-methanone] | 0.7 µM |
| CCC[C@H]1N=C(c2ccc(OC)cc2OCC)N(C(=O)N2CCC(N3CCCC3)CC2)[C@H]1c1ccc(Cl)cc1 (stereo in doubt) [Example 26, [5-(4-Chloro-phenyl)-2-(2-ethoxy-4-methoxy-phenyl)-4-propyl-4,5-dihydro-imidazol-1-yl]-(4-pyrrolidin-1-yl-piperidin-1-yl)-methanone] | 45 µM |
